Data from article PMC4303209, “A novel phosphatidylinositol 3-kinase (PI3K) inhibitor directs a potent FOXO-dependent, p53-independent cell cycle arrest phenotype characterized by the differential induction of a subset of FOXO-regulated genes” (Breast Cancer Research : BCR, 2014).

System: MCF-7 breast cancer cells
Test: Microarray gene expression analysis (Agilent whole human genome 4 x 44K; compound vs DMSO, LIMMA log2 fold change)
Type: cell-based
Conditions: Apoptosis genes

Compound: Cn1ncc2c(N3CCOCC3)nc(-c3cccc(O)c3)nc21 [ETP-45658]
- CTNNA1 log2FC (Gene 1495): 0.398
- CTNNB1 log2FC (Gene 1499): 0.236
- CTSB log2FC (Gene 1508): -0.231
- CTSH log2FC (Gene 1512): -0.192
- CTSL log2FC (Gene 1514): 0.446
- CX3CR1 log2FC (Gene 1524): 0.181
- CYLD log2FC (Gene 1540): 0.499
- DAB2 log2FC (Gene 1601): -0.232
- DAD1 log2FC (Gene 1603): -0.542
- DAP log2FC (Gene 1611): -0.178
- DAPK1 log2FC (Gene 1612): 0.238
- DAPK3 log2FC (Gene 1613): -0.132
- DBH log2FC (Gene 1621): -0.059
- DCC log2FC (Gene 1630): 0.044
- GADD45A log2FC (Gene 1647): -0.416
- DDIT3 log2FC (Gene 1649): 2.364
- DDX3X log2FC (Gene 1654): -1.156
- DDX5 log2FC (Gene 1655): -0.656
- DFFA log2FC (Gene 1676): -0.316
- DFNA5 log2FC (Gene 1687): 0.156
- DHCR24 log2FC (Gene 1718): -0.643
- DHODH log2FC (Gene 1723): -0.210
- NQO1 log2FC (Gene 1728): 0.303
- DLX1 log2FC (Gene 1745): -0.429
- DNASE1 log2FC (Gene 1773): 0.250
- DNASE1L3 log2FC (Gene 1776): -0.141
- DNASE2 log2FC (Gene 1777): 0.536
- DOCK1 log2FC (Gene 1793): 0.462
- DPEP1 log2FC (Gene 1800): -0.068
- ATN1 log2FC (Gene 1822): -0.501
- DSG1 log2FC (Gene 1828): -0.456
- DSG2 log2FC (Gene 1829): 0.346
- DSG3 log2FC (Gene 1830): -0.092
- TSC22D3 log2FC (Gene 1831): 0.689
- DSP log2FC (Gene 1832): 0.613
- DUSP1 log2FC (Gene 1843): -0.931
- DUSP2 log2FC (Gene 1844): -2.124
- DUSP6 log2FC (Gene 1848): -2.175
- E2F1 log2FC (Gene 1869): -0.356
- E2F2 log2FC (Gene 1870): -0.581
- ECT2 log2FC (Gene 1894): 1.058
- EDN1 log2FC (Gene 1906): 0.169
- EDNRA log2FC (Gene 1909): -0.061
- EDNRB log2FC (Gene 1910): -0.075
- EEF1A2 log2FC (Gene 1917): -0.382
- EFNA5 log2FC (Gene 1946): -0.086
- EGFR log2FC (Gene 1956): 0.311
- EGR1 log2FC (Gene 1958): -3.897
- EGR2 log2FC (Gene 1959): -0.340
- EPHA2 log2FC (Gene 1969): -2.195
- EIF5A log2FC (Gene 1984): -0.137
- ENDOG log2FC (Gene 2021): -0.357
- EP300 log2FC (Gene 2033): -0.215
- EPHA7 log2FC (Gene 2045): -0.083
- CLN8 log2FC (Gene 2055): -0.161
- EPO log2FC (Gene 2056): -0.146
- ERBB3 log2FC (Gene 2065): 0.557
- ERBB4 log2FC (Gene 2066): 0.141
- ERCC2 log2FC (Gene 2068): -0.566
- ERCC3 log2FC (Gene 2071): -0.084
- ERCC5 log2FC (Gene 2073): 0.896
- ERCC6 log2FC (Gene 2074): 0.369
- ERN1 log2FC (Gene 2081): -0.168
- ESR1 log2FC (Gene 2099): -0.121
- ESR2 log2FC (Gene 2100): -0.067
- ETS1 log2FC (Gene 2113): -0.590
- EYA2 log2FC (Gene 2139): -0.248
- F2R log2FC (Gene 2149): 0.260
- F3 log2FC (Gene 2152): -0.164
- PTK2B log2FC (Gene 2185): 0.101
- FCER1G log2FC (Gene 2207): -0.662
- FGD1 log2FC (Gene 2245): -0.405
- FGF4 log2FC (Gene 2249): -0.171
- FGF8 log2FC (Gene 2253): -0.131
- FGF10 log2FC (Gene 2255): 0.033
- FGFR1 log2FC (Gene 2260): -0.387
- FGFR3 log2FC (Gene 2261): -0.382
- FGFR2 log2FC (Gene 2263): 1.543
- FHIT log2FC (Gene 2272): -0.370
- FHL2 log2FC (Gene 2274): -0.173
- FOXC1 log2FC (Gene 2296): -0.876
- FOXC2 log2FC (Gene 2303): -0.613
- FLT3 log2FC (Gene 2322): 0.165
- FLT4 log2FC (Gene 2324): -0.341
- FNTA log2FC (Gene 2339): 1.051
- FXN log2FC (Gene 2395): -0.579
- FRZB log2FC (Gene 2487): 0.110
- FYN log2FC (Gene 2534): -0.127
- G6PD log2FC (Gene 2539): -0.236
- GABRA5 log2FC (Gene 2558): 0.036
- GABRB2 log2FC (Gene 2561): -0.066
- GABRB3 log2FC (Gene 2562): 0.054
- GAS1 log2FC (Gene 2619): 0.711
- GAS2 log2FC (Gene 2620): 0.183
- GATA1 log2FC (Gene 2623): -0.041
- GATA3 log2FC (Gene 2625): -0.140
- GDNF log2FC (Gene 2668): 0.348
- B4GALT1 log2FC (Gene 2683): 0.129
- GJA1 log2FC (Gene 2697): -0.390
- GCLC log2FC (Gene 2729): 1.033
- GLI3 log2FC (Gene 2737): 0.306
- GLO1 log2FC (Gene 2739): 0.300
- GML log2FC (Gene 2765): -0.233
- GNB1 log2FC (Gene 2782): -0.075
- GNGT1 log2FC (Gene 2792): 0.035
- GNRH1 log2FC (Gene 2796): 0.243
- SFN log2FC (Gene 2810): -1.182
- GPLD1 log2FC (Gene 2822): -0.136
- CXCR3 log2FC (Gene 2833): -0.730
- GRK5 log2FC (Gene 2869): 0.091
- MKNK2 log2FC (Gene 2872): -0.750
- GPX1 log2FC (Gene 2876): 0.224
- GRID2 log2FC (Gene 2895): -0.054
- GRIK2 log2FC (Gene 2898): 0.090
- GRIK5 log2FC (Gene 2901): -0.286
- GRIN1 log2FC (Gene 2902): -0.518
- GRIN2A log2FC (Gene 2903): -0.037
- NR3C1 log2FC (Gene 2908): 1.303
- GRM4 log2FC (Gene 2914): -0.041
- PDIA3 log2FC (Gene 2923): -0.131
- GSK3A log2FC (Gene 2931): -0.246
- GSK3B log2FC (Gene 2932): -0.607
- GSN log2FC (Gene 2934): -0.206
- GSTP1 log2FC (Gene 2950): 0.120
- MSH6 log2FC (Gene 2956): 0.235
- GZMH log2FC (Gene 2999): -0.228
- GZMA log2FC (Gene 3001): -0.081
- GZMB log2FC (Gene 3002): -0.203
- GZMM log2FC (Gene 3004): -0.523
- H1F0 log2FC (Gene 3005): 0.826
- HCK log2FC (Gene 3055): -0.046
- HDAC1 log2FC (Gene 3065): -0.487
- HDAC2 log2FC (Gene 3066): 0.164
- HELLS log2FC (Gene 3070): 0.388
- NCKAP1L log2FC (Gene 3071): 0.079
- HGF log2FC (Gene 3082): -0.369
- NRG1 log2FC (Gene 3084): -1.147
- HIC1 log2FC (Gene 3090): -0.118
- HIF1A log2FC (Gene 3091): 0.141
- HIP1 log2FC (Gene 3092): -0.264
- HINT1 log2FC (Gene 3094): 0.229
- HK2 log2FC (Gene 3099): -1.193
- HMGB1 log2FC (Gene 3146): 0.513
- HMGB2 log2FC (Gene 3148): 1.232
- HMGCR log2FC (Gene 3156): 0.305
- HMOX1 log2FC (Gene 3162): 1.167
- NR4A1 log2FC (Gene 3164): -0.616
- HOXA5 log2FC (Gene 3202): 0.402
- HOXA13 log2FC (Gene 3209): 0.081
- HRAS log2FC (Gene 3265): -0.664
- HRG log2FC (Gene 3273): 0.066
- PRMT2 log2FC (Gene 3275): 0.361
- HSPA1A log2FC (Gene 3303): -2.764
- HSPA5 log2FC (Gene 3309): -0.358
- HSPB1 log2FC (Gene 3315): -0.158
- HSP90AA1 log2FC (Gene 3320): 1.066
- HSP90AB1 log2FC (Gene 3326): -0.153
